Test results published in patent US12564638B2 (SHANGHAITECH UNIVERSITY, priority 2019, dated 2026).

System: HCC827 cells (EGFR Exon19 del, non-small cell lung cancer cells)
Experiment: Cell viability assay (WST/CCK8), HCC827 cells
Type: cell-based
Details: Homo sapiens, HCC827, 72 h, Table 3, poziotinib-based compounds; HCC827 (Exon19 Del); 72 hours; WST (CCK8); read-out: IC50 (half inhibitory concentration)
Text: The cell lines with abnormal EGFR expression used are as follows: • HCC827 cells (EGFR Exon19 del, non-small cell lung cancer cells); • PC9 cells (EGFR Exon 19 del, non-small cell lung cancer cells); • PC9BracA1 (EGFR Exon 19 del+T790M, non-small cell lung cancer cells) • H1975 (EGFR Exon T790M+L858R mutation, non-small cell lung cancer cell line) • BT474 cells (HER2 positive breast cancer cells)
All of the half inhibitory concentrations (IC50) of these compounds of the present invention were determined with WST reagent from Fuyuan Biotec Company. The specific experiment procedures are as follows: Cancer cells were planted in 96-well-plate at the density of 3 000 cells per well with 100 μL RPMI1640 completed culture medium. In the next day, compounds with indicated concentrations were added to the cells, DMSO was used as the negative control and the EGFR TKIs were used to treat cells as the positive groups. After 72 hours drug treatment, cell viability was measured by using the WST reagent following the instructions.
The cells were treated with the gradient concentration of these compounds (the maximum concentration: 10 μM; 3-fold dilution ratio, 10 concentration gradients) for 72 hours and then incubated with the WST (CCK8) reagent to determine the cell viability.

Row | IC50 [nM] | Structure (SMILES)
1 | 13.3 | COc1cc2ncnc(Nc3ccc(Cl)c(Cl)c3F)c2cc1OC1CCN(C(=O)CCCCCSc2cccc3c2C(=O)N(C2CCC(=O)NC2=O)C3=O)CC1 (centres unmarked) [SIAIS249018, 4-((6-(4-((4-((3,4-dichloro-2-fluorophenyl)amino)-7-methoxyquinazolin-6-yl)oxy)piperidin-1-yl)-6-oxohexyl)thio)-2-(2,6-dioxopiperidin-3-yl)isoindoline-1,3-dione]
2 | 38 | COc1cc2ncnc(Nc3ccc(Cl)c(Cl)c3F)c2cc1OC1CCN(C(=O)CCCCCCSc2cccc3c2C(=O)N(C2CCC(=O)NC2=O)C3=O)CC1 (centres unmarked) [SIAIS249019, 4-((7-(4-((4-((3,4-dichloro-2-fluorophenyl)amino)-7-methoxyquinazolin-6-yl)oxy)piperidin-1-yl)-7-oxoheptyl)thio)-2-(2,6-dioxopiperidin-3-yl)isoindoline-1,3-dione]
3 | 75.5 | COc1cc2ncnc(Nc3ccc(Cl)c(Cl)c3F)c2cc1OC1CCN(C(=O)CCC(=O)N[C@H](C(=O)N2C[C@H](O)C[C@H]2C(=O)NCc2ccc(-c3scnc3C)cc2)C(C)(C)C)CC1 [SIAIS249020, (2S,4R)-1-((S)-2-(4-(4-((4-((3,4-dichloro-2-fluorophenyl)amino)-7-methoxyquinazolin-6-yl)oxy)piperidin-1-yl)-4-oxobutanamido)-3,3-dimethylbutanoyl)-4-hydroxy-N-(4-(4-methylthiazol-5-yl)benzyl)pyrrolidine-2-carboxamide]

Same assay, conditions: Homo sapiens, HCC827, 72 h, Table 4, gefitinib and sapitinib-based compounds; HCC827 (Exon19 Del); 72 hours; WST; read-out: IC50 (half inhibitory concentration)

Row | Structure (SMILES) | IC50 [nM]
4 | COc1cc2ncnc(Nc3ccc(F)c(Cl)c3)c2cc1OCCCN1CCNCC1 [Gefitinib derivative A (SIAIS184161), N-(3-chloro-4-fluorophenyl)-7-methoxy-6-(3-(piperazin-1-yl)propoxy)quinazolin-4-amine] | 10
5 | COc1cc2ncnc(Nc3ccc(F)c(Cl)c3)c2cc1OC1CCN(CC(=O)O)CC1 [Gefitinib derivative C (SIAIS293033), 2-(4-((4-((3-chloro-4-fluorophenyl)amino)-7-methoxyquinazolin-6-yl)oxy)piperidin-1-yl)acetic acid] | 575
6 | COc1cc2ncnc(Nc3ccc(F)c(Cl)c3)c2cc1OCCCN1CCN(C(=O)CSc2cccc3c2CN(C2CCC(=O)NC2=O)C3=O)CC1 (centres unmarked) [SIAIS184184, 3-(4-((2-(4-(3-((4-((3-chloro-4-fluorophenyl)amino)-7-methoxyquinazolin-6-yl)oxy)propyl)piperazin-1-yl)-2-oxoethyl)thio)-1-oxoisoindolin-2-yl)piperidine-2,6-dione] | 100
7 | COc1cc2ncnc(Nc3ccc(F)c(Cl)c3)c2cc1OCCCN1CCN(C(=O)CCCSc2cccc3c2CN(C2CCC(=O)NC2=O)C3=O)CC1 (centres unmarked) [SIAIS184185, 3-(4-((4-(4-(3-((4-((3-chloro-4-fluorophenyl)amino)-7-methoxyquinazolin-6-yl)oxy)propyl)piperazin-1-yl)-4-oxobutyl)thio)-1-oxoisoindolin-2-yl)piperidine-2,6-dione] | 113
8 | COc1cc2ncnc(Nc3ccc(F)c(Cl)c3)c2cc1OCCCN1CCN(C(=O)CCCCCSc2cccc3c2CN(C2CCC(=O)NC2=O)C3=O)CC1 (centres unmarked) [SIAIS184186, 3-(4-((6-(4-(3-((4-((3-chloro-4-fluorophenyl)amino)-7-methoxyquinazolin-6-yl)oxy)propyl)piperazin-1-yl)-6-oxohexyl)thio)-1-oxoisoindolin-2-yl)piperidine-2,6-dione] | 124

Now from value to compound:

Row | IC50 [nM] | Structure (SMILES)
9 | 47 | COc1cc2ncnc(Nc3ccc(F)c(Cl)c3)c2cc1OCCCN1CCN(C(=O)CSc2cccc3c2C(=O)N(C2CCC(=O)NC2=O)C3=O)CC1 (centres unmarked) [SIAIS184164, 4-((2-(4-(3-((4-((3-chloro-4-fluorophenyl)amino)-7-methoxyquinazolin-6-yl)oxy)propyl)piperazin-1-yl)-2-oxoethyl)thio)-2-(2,6-dioxopiperidin-3-yl)isoindoline-1,3-dione]
10 | 58 | COc1cc2ncnc(Nc3ccc(F)c(Cl)c3)c2cc1OCCCN1CCN(C(=O)CCCSc2cccc3c2C(=O)N(C2CCC(=O)NC2=O)C3=O)CC1 (centres unmarked) [SIAIS184165, 4-((4-(4-(3-((4-((3-chloro-4-fluorophenyl)amino)-7-methoxyquinazolin-6-yl)oxy)propyl)piperazin-1-yl)-4-oxobutyl)thio)-2-(2,6-dioxopiperidin-3-yl)isoindoline-1,3-dione]
11 | 186 | COc1cc2ncnc(Nc3ccc(F)c(Cl)c3)c2cc1OCCCN1CCN(C(=O)COCCOCCOCCOCCOCCSc2cccc3c2C(=O)N(C2CCC(=O)NC2=O)C3=O)CC1 (centres unmarked) [SIAIS184170, 4-((17-(4-(3-((4-((3-chloro-4-fluorophenyl)amino)-7-methoxyquinazolin-6-yl)oxy)propyl)piperazin-1-yl)-17-oxo-3,6,9,12,15-pentaoxaheptadecyl)thio)-2-(2,6-dioxopiperidin-3-yl)isoindoline-1,3-dione]

Same assay, conditions: Homo sapiens, HCC827, 72 h, Table 5, afatinib-based compounds; HCC827 (Exon19 Del); 72 hours; WST; read-out: IC50 (half inhibitory concentration)

Row | IC50 [nM] | Structure (SMILES)
12 | 86.2 | O=C1CCC(N2C(=O)c3cccc(SCC(=O)Nc4cc5c(Nc6ccc(F)c(Cl)c6)ncnc5cc4O[C@H]4CCOC4)c3C2=O)C(=O)N1 (stereo partly drawn) [SIAIS184093, N-(4-((3-chloro-4-fluorophenyl)amino)-7-(((S)-tetrahydrofuran-3-yl)oxy)quinazolin-6-yl)-2-((2-(2,6-dioxopiperidin-3-yl)-1,3-dioxoisoindolin-4-yl)thio)acetamide]
13 | 105 | O=C1CCC(N2C(=O)c3cccc(SCCCC(=O)Nc4cc5c(Nc6ccc(F)c(Cl)c6)ncnc5cc4O[C@H]4CCOC4)c3C2=O)C(=O)N1 (stereo partly drawn) [SIAIS184094, N-(4-((3-chloro-4-fluorophenyl)amino)-7-(((S)-tetrahydrofuran-3-yl)oxy)quinazolin-6-yl)-4-((2-(2,6-dioxopiperidin-3-yl)-1,3-dioxoisoindolin-4-yl)thio)butanamide]
14 | 174 | O=C1CCC(N2C(=O)c3cccc(SCCCCCC(=O)Nc4cc5c(Nc6ccc(F)c(Cl)c6)ncnc5cc4O[C@H]4CCOC4)c3C2=O)C(=O)N1 (stereo partly drawn) [SIAIS184095, N-(4-((3-chloro-4-fluorophenyl)amino)-7-(((S)-tetrahydrofuran-3-yl)oxy)quinazolin-6-yl)-6-((2-(2,6-dioxopiperidin-3-yl)-1,3-dioxoisoindolin-4-yl)thio)hexanamide]
15 | 131 | O=C1CCC(N2C(=O)c3cccc(SCCOCC(=O)Nc4cc5c(Nc6ccc(F)c(Cl)c6)ncnc5cc4O[C@H]4CCOC4)c3C2=O)C(=O)N1 (stereo partly drawn) [SIAIS184152, N-(4-((3-chloro-4-fluorophenyl)amino)-7-(((S)-tetrahydrofuran-3-yl)oxy)quinazolin-6-yl)-2-(2-((2-(2,6-dioxopiperidin-3-yl)-1,3-dioxoisoindolin-4-yl)thio)ethoxy)acetamide]
16 | 316 | O=C1CCC(N2C(=O)c3cccc(SCCOCCOCC(=O)Nc4cc5c(Nc6ccc(F)c(Cl)c6)ncnc5cc4O[C@H]4CCOC4)c3C2=O)C(=O)N1 (stereo partly drawn) [SIAIS184153, N-(4-((3-chloro-4-fluorophenyl)amino)-7-(((S)-tetrahydrofuran-3-yl)oxy)quinazolin-6-yl)-2-(2-(2-((2-(2,6-dioxopiperidin-3-yl)-1,3-dioxoisoindolin-4-yl)thio)ethoxy)ethoxy)acetamide]
17 | 250 | O=C1CCC(N2C(=O)c3cccc(SCCOCCOCCOCC(=O)Nc4cc5c(Nc6ccc(F)c(Cl)c6)ncnc5cc4O[C@H]4CCOC4)c3C2=O)C(=O)N1 (stereo partly drawn) [SIAIS184154, N-(4-((3-chloro-4-fluorophenyl)amino)-7-(((S)-tetrahydrofuran-3-yl)oxy)quinazolin-6-yl)-2-(2-(2-(2-((2-(2,6-dioxopiperidin-3-yl)-1,3-dioxoisoindolin-4-yl)thio)ethoxy)ethoxy)ethoxy)acetamide]
18 | 79 | O=C1CCC(N2C(=O)c3cccc(SCCOCCOCCOCCOCC(=O)Nc4cc5c(Nc6ccc(F)c(Cl)c6)ncnc5cc4O[C@H]4CCOC4)c3C2=O)C(=O)N1 (stereo partly drawn) [SIAIS184155, N-(4-((3-chloro-4-fluorophenyl)amino)-7-(((S)-tetrahydrofuran-3-yl)oxy)quinazolin-6-yl)-14-((2-(2,6-dioxopiperidin-3-yl)-1,3-dioxoisoindolin-4-yl)thio)-3,6,9,12-tetraoxatetradecan-1-amide]
19 | 978 | O=C1CCC(N2C(=O)c3cccc(SCCOCCOCCOCCOCCOCC(=O)Nc4cc5c(Nc6ccc(F)c(Cl)c6)ncnc5cc4O[C@H]4CCOC4)c3C2=O)C(=O)N1 (stereo partly drawn) [SIAIS184156, N-(4-((3-chloro-4-fluorophenyl)amino)-7-(((S)-tetrahydrofuran-3-yl)oxy)quinazolin-6-yl)-17-((2-(2,6-dioxopiperidin-3-yl)-1,3-dioxoisoindolin-4-yl)thio)-3,6,9,12,15-pentaoxaheptadecan-1-amide]

Same assay, conditions: Homo sapiens, HCC827, 72 h, Table 6, canertinib-based compounds; HCC827 (Exon19 Del); 72 hours; WST; read-out: IC50 (half inhibitory concentration)

Row | IC50 [nM] | Structure (SMILES)
20 | 4.5 | C=CC(=O)Nc1cc2c(Nc3ccc(F)c(Cl)c3)ncnc2cc1OCCCN1CCNCC1 [Caneritinib derivative A (SIAIS293064), N-(4-((3-chloro-4-fluorophenyl)amino)-7-(3-(piperazin-1-yl)propoxy)quinazolin-6-yl)acrylamide]
